Experimental data taken from the supplement of paper PMC10307832.

Experiments:
Experiment in all cases: relative viability (nuclei count vs DMSO), 5 days (fraction); higher = more cells survive
Carfilzomib + Pictilisib = compound: CC(C)C[C@H](NC(=O)[C@H](CCc1ccccc1)NC(=O)CN1CCOCC1)C(=O)N[C@@H](Cc1ccccc1)C(=O)N[C@@H](CC(C)C)C(=O)[C@@]1(C)CO1 [Carfilzomib] + CS(=O)(=O)N1CCN(Cc2cc3nc(-c4cccc5[nH]ncc45)nc(N4CCOCC4)c3s2)CC1 [Pictilisib] (partner 1 µM)
How it was run: (§1)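 A single step with final 0.05% Triton X-100, 1% formaldehyde and 1 ug/ml Hoechst fixed the cells and stained nuclei 5 days after treatment. Lung cancer cell lines in 1536-well plates had been treated by pin tool the day after seeding with one drug alone or a fixed anchor-drug dose plus five library-drug doses (not always all listed) in √10 steps, and nuclei were counted on 4× images. Relative viability is the ratio of nuclei in treated wells to nuclei in vehicle wells, taken as the median of duplicate plates.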

Carfilzomib + Olaparib = compound: CC(C)C[C@H](NC(=O)[C@H](CCc1ccccc1)NC(=O)CN1CCOCC1)C(=O)N[C@@H](Cc1ccccc1)C(=O)N[C@@H](CC(C)C)C(=O)[C@@]1(C)CO1 [Carfilzomib] + O=C(c1cc(Cc2n[nH]c(=O)c3ccccc23)ccc1F)N1CCN(C(=O)C2CC2)CC1 [Olaparib] (partner 8 µM)
How it was run: as §1

Crizotinib + Foretinib = compound: C[C@@H](Oc1cc(-c2cnn(C3CCNCC3)c2)cnc1N)c1c(Cl)ccc(F)c1Cl [Crizotinib] + COc1cc2c(Oc3ccc(NC(=O)C4(C(=O)Nc5ccc(F)cc5)CC4)cc3F)ccnc2cc1OCCCN1CCOCC1 [Foretinib] (partner 0.25 µM)
How it was run: as §1

Crizotinib + Vorinostat = compound: C[C@@H](Oc1cc(-c2cnn(C3CCNCC3)c2)cnc1N)c1c(Cl)ccc(F)c1Cl [Crizotinib] + O=C(CCCCCCC(=O)Nc1ccccc1)NO [Vorinostat] (partner 1 µM)
How it was run: as §1

Cell Line | relative viability (Carfilzomib + Pictilisib; first compound 0.001 µM) | relative viability (Carfilzomib + Pictilisib; first compound 0.003162 µM) | relative viability (Carfilzomib + Pictilisib; first compound 0.01 µM) | relative viability (Carfilzomib + Pictilisib; first compound 0.03162 µM) | relative viability (Carfilzomib + Pictilisib; first compound 0.1 µM) | relative viability (Carfilzomib + Olaparib; first compound 0.001 µM) | relative viability (Carfilzomib + Olaparib; first compound 0.003162 µM) | relative viability (Carfilzomib + Olaparib; first compound 0.01 µM) | relative viability (Carfilzomib + Olaparib; first compound 0.03162 µM) | relative viability (Carfilzomib + Olaparib; first compound 0.1 µM) | relative viability (Crizotinib + Foretinib; first compound 0.01 µM) | relative viability (Crizotinib + Foretinib; first compound 0.03162 µM) | relative viability (Crizotinib + Foretinib; first compound 0.1 µM) | relative viability (Crizotinib + Foretinib; first compound 1 µM) | relative viability (Crizotinib + Vorinostat; first compound 0.01 µM) | relative viability (Crizotinib + Vorinostat; first compound 0.03162 µM) | relative viability (Crizotinib + Vorinostat; first compound 0.3162 µM) | relative viability (Crizotinib + Vorinostat; first compound 1 µM) | relative viability (Crizotinib + Vorinostat; first compound 0.1 µM) | relative viability (Crizotinib + Foretinib; first compound 0.3162 µM)
NCI-H2085 | 0.443 | 0.45 | 0.48 | 0.306 | 0.269 | 0.771 | 0.739 | 0.749 | 0.372 | 0.244 | 0.822 | 0.809 | 0.906 | 0.987 | 0.756 | 0.733 | 0.782 | 0.742 |  | 
NCI-H2087 | 0.802 | 0.874 | 0.552 | 0.0964 | 0.18 | 0.589 | 0.783 | 0.374 | 0.0505 | 0.0285 | 1.12 | 1.12 | 1.03 | 1.24 | 0.679 | 0.689 | 0.94 | 0.731 | 0.766 | 
NCI-H2126 | 0.557 | 0.477 | 0.512 | 0.555 | 0.446 | 0.897 | 1.01 | 0.957 | 0.746 | 0.464 | 1.03 | 1.18 | 1.12 | 1.18 | 0.636 | 0.835 | 0.371 |  | 0.682 | 1.1
NCI-H2170 | 0.317 | 0.349 | 0.327 | 0.283 | 0.163 | 0.6 | 0.674 | 0.588 | 0.218 | 0.117 | 0.965 | 0.991 | 0.999 | 1.01 |  | 0.838 | 0.795 | 0.828 | 0.746 | 1.02
NCI-H2228 | 0.465 | 0.468 | 0.206 | 0.102 | 0.115 | 0.838 | 0.813 | 0.61 | 0.0953 | 0.124 | 0.872 | 0.997 | 0.699 | 0.434 | 0.46 | 0.843 | 0.57 | 0.683 | 0.402 | 0.81
NCI-H2347 | 0.662 | 0.623 | 0.67 | 0.549 | 0.318 | 0.502 | 0.587 | 0.564 | 0.503 | 0.363 | 0.689 | 0.918 | 1.03 | 1.06 | 0.551 | 0.606 | 0.534 | 0.536 | 0.671 | 0.656
NCI-H2405 |  | 0.583 | 0.521 | 0.321 | 0.174 | 0.836 | 0.946 | 0.915 | 0.699 | 0.211 | 1.02 | 1.06 | 1.05 | 1.06 | 0.955 | 1.01 | 0.535 | 0.959 | 1.08 | 1.09
NCI-H3122 | 0.585 | 0.615 | 0.6 | 0.602 | 0.34 | 0.654 | 0.611 | 0.609 | 0.452 | 0.269 | 0.94 | 0.925 | 0.978 | 0.924 | 0.929 | 0.753 | 0.941 | 0.961 | 0.932 | 0.873
PC-3 [JPC-3] | 0.782 | 0.747 | 0.677 | 0.707 | 0.259 | 1.17 | 1.16 | 1.18 | 0.652 | 0.301 | 0.969 | 1.05 | 1.01 | 0.986 | 0.687 | 0.903 |  | 0.71 | 1.16 | 0.992
PC-14 | 0.55 | 0.816 | 0.364 | 0.0334 | 0.0646 | 0.281 | 0.334 | 0.243 | 0.0393 | 0.0576 | 0.894 | 1.01 |  | 0.999 | 0.632 | 0.792 | 0.608 | 0.784 | 0.693 | 0.926
RERF-LC-KJ | 0.528 | 0.469 | 0.675 | 0.265 | 0.149 | 1.05 | 0.898 | 0.91 | 0.379 | 0.22 | 0.824 | 0.896 | 1.33 | 0.887 | 0.695 | 0.708 | 0.566 | 0.773 | 0.709 | 0.817
SK-LU-1 | 0.518 | 0.653 | 0.541 | 0.201 | 0.15 | 0.421 | 0.54 | 0.438 | 0.198 | 0.147 | 0.822 | 0.778 | 0.787 | 0.848 | 0.73 | 0.727 | 0.801 | 0.761 | 0.71 | 0.902
SK-MES-1 | 0.338 | 0.419 | 0.337 | 0.283 | 0.174 | 0.709 | 0.847 | 0.775 | 0.276 | 0.146 | 0.875 | 0.919 | 0.941 | 0.843 | 0.993 | 1.11 | 0.981 | 1.07 | 1.09 | 0.798
SW 1573 | 0.517 | 0.512 | 0.404 | 0.277 | 0.0513 | 0.587 | 0.487 | 0.215 | 0.0532 | 0.0533 | 0.85 | 0.762 | 0.905 | 0.98 | 0.824 | 0.947 | 0.55 | 0.671 | 0.729 | 0.77
UMC-11 | 0.608 | 0.956 | 0.778 | 0.648 | 0.336 | 0.342 | 0.326 | 0.315 | 0.347 | 0.205 | 1.01 | 1.04 | 1.07 | 1.02 | 0.271 | 0.424 | 0.356 | 0.427 | 0.407 | 1.04
